Experimental data from paper PMC10269895 (Microbiology Spectrum, 2023).

Legend:
[1] = target: T1, CYP3A4 (Homo sapiens, UniProt P08684); experiment: CYP inhibition IC50 shift assay in human liver microsomes; format: in vitro ADME; conditions: concentrations of up to 50 μM
T1 construct: the reaction mixture was prepared with a human liver microsome concentration of 0.1 mg/mL; from tissue; host or cells: human liver microsomes
Procedure: To examine the potential for time-dependent and direct competitive CYP3A4 inhibition, the reaction mixture was prepared with a human liver microsome concentration of 0.1 mg/mL. GE81112A was added to final concentrations of 50, 25, 10, 5, 2, 0.4, and 0.08 μM. Mixtures were brought to 37°C, with the addition of an NADPH-generating system (EDTA, 1 mM; MgCl2, 3 mM; β-NADPH, 1 mM; glucose 6-phosphate, 5 mM final concentration) in water to one set of reaction mixtures and water to a second set of reaction mixtures. The reaction mixtures were preincubated for 45 min. A CYP isoform-selective substrate (3 μM midazolam or 50 μM testosterone) was added to the reaction mixtures, and NADPH was added to the second set of reaction mixtures for an additional 10-min incubation period. The reactions were stopped by the addition of 200 μL internal standard solution in acetonitrile.
Both incubation plates (for midazolam and testosterone) were centrifuged at 3,000 rpm for 10 min. The samples were analyzed using LC-MS/MS. Parallel analysis of the CYP3A4 substrate midazolam and the CYP3A4 substrate testosterone was performed. The calculations of 50% inhibitory concentration (IC50) values and IC50 shift values were performed by using 4-paratemeter curve fitting.

[2] = system: Salmonella enterica serovar Typhimurium; experiment: Ames II test; format: cell-based; conditions: with and without S9
Procedure: The test was carried out with and without metabolic activation by S9 liver homogenate from rats that had been pretreated with Arcolor, S9 mix. The Salmonella enterica serovar Typhimurium tester strains included the mixed strains TA7001 to TA7006 for detection of base pair substitutions and TA98 for detection of frameshift mutations ([18]). Bacterial cultures (from frozen stocks) were grown overnight and tested for genotype conformation. Test compound diluted in DMSO was tested at 16, 50, 160, 500, 1,600, and 5,000 μg/mL with each strain, both in the presence and in the absence of the exogenous hepatic microsomal fraction (S9) from Aroclor 1254-treated rats (obtained as described above). […] Then, 2.8 mL of a pH indicator solution (Merck KGaA, Darmstadt, Germany) (bromocresol purple) containing trace amounts of histidine and biotin (ready-to-use commercial solution) was added to each well, and all samples were then transferred into a 384-well plate. […] Toxicity was assessed by evaluating the density of growth of the background lawn of bacteria. Mutagenicity was assessed by counting the number of wells with color changes (purple or yellow) or the number of easily visible colonies (revertants).

[3] = Hepatic in vitro CLint in primary plated hepatocytes; format: in vitro ADME, human
Procedure: For hepatic in vitro CLint studies, primary cultures of cryopreserved human or animal species hepatocytes were seeded at a density of 200,000 cells per well and cultured overnight in collagen-coated 48-well plates in modified Ham’s F-12/William’s E medium. Disappearance kinetics of 5 μM GE81112A were sampled over a 24-h period. Dextromethorphan, midazolam, phenacetin, and tolbutamide (5 μM each) were used as reference compounds. Acetonitrile was used to terminate the incubation, and samples were centrifuged at 2,000 × g for 10 min after the addition of an appropriate internal standard. Supernatants were separated by LC using an AERIS peptide XB-C18 column (3.6 μm, 50 by 2.1 mm; Phenomenex, Aschaffenburg, Germany) with the following gradient of buffer A (water) and buffer B (acetonitrile): 0 to 5 min, 95% buffer A; 20 to 25 min, 5% buffer A. Both solvents were supplemented with 0.1% formic acid. The remaining parent peptide was quantified by LC-MS/MS using a Q Exactive hybrid quadrupole-Orbitrap device (Thermo Fisher Scientific). In vitro hepatic CLint was calculated as dose/area under the concentration-time curve from 0 to 24 h (AUC0–24), where dose is the concentration of GE81112A determined in the time zero sample and classified using reference compounds for low, moderate, or high CLint.

[4] = target: hKV4.3 (Homo sapiens, UniProt Q9UK17); experiment: Off-target ion channel profiling (automated patch clamp); format: cell-based; conditions: concentrations up to 30 μM
hKV4.3, sequence (Q9UK17 whole entry): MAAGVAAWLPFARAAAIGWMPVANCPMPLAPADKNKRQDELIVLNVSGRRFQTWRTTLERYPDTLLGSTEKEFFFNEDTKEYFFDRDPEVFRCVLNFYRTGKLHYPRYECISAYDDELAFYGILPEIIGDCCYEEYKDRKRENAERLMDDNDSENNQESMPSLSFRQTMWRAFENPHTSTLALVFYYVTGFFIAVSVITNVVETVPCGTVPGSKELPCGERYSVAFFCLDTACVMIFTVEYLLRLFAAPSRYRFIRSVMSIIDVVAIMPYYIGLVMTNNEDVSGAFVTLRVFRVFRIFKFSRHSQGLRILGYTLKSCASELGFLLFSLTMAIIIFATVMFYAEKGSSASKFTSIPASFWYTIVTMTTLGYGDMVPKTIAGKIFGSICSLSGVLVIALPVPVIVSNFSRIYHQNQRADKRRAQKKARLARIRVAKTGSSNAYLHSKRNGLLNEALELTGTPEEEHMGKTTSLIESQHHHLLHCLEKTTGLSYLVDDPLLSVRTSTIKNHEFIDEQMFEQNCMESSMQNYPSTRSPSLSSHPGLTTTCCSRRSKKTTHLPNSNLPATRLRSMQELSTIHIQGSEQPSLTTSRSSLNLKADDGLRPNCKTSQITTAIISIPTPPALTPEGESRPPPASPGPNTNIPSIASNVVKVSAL
Procedure: (§1) The effect of GE81112A on the hERG and other ion channels (hNaV1.5, hNaV1.2, hCaV3.1, or hKV4.3) was investigated using an automated patch-clamp method, as described by Houtmann et al. ([17]). GE81112A was diluted in a 5-fold 1:3 dilution series with a final concentration range of 30 to 0.12 μM in extracellular medium (150 mM NaCl, 4 mM KCl, 2 mM CaCl2, 1 mM MgCl2, 10 mM HEPES, 10 mM glucose, 0.06% Pluronic F-68, 0.3% residual DMSO). The hERG channel was constitutively expressed in Chinese hamster ovary (CHO) cells (CHO hERG Duo; B’SYS GmbH, Witterswil, Switzerland). CHO cells were grown at a concentration of 8 × 10^6 CHO cells/mL in QPlates (Sophion/Biolin Scientific, Ballerup, Denmark) in Ex-Cell animal component-free CHO medium (Sigma-Aldrich) supplemented with 25 mM HEPES, 100 U/mL penicillin-streptomycin, and 0.004% soybean trypsin inhibitor. To each well, we added extracellular medium containing the desired concentration of GE81112A. The peptide-hERG interaction was quantified by recording the tail current following repolarization of the hERG channels using a QPatch HTX station (Sophion/Biolin Scientific). The IC50 values were determined using the values from three replicates of the GE81112A concentration series with respect to the terfenadine citrate positive control and extracellular medium (blank).

[5] = target: T2, hERG (Homo sapiens, UniProt Q12809); experiment: as above; format: cell-based; conditions: concentrations up to 30 μM
T2 construct: host or cells: CHO
T2 sequence (Q12809 whole entry): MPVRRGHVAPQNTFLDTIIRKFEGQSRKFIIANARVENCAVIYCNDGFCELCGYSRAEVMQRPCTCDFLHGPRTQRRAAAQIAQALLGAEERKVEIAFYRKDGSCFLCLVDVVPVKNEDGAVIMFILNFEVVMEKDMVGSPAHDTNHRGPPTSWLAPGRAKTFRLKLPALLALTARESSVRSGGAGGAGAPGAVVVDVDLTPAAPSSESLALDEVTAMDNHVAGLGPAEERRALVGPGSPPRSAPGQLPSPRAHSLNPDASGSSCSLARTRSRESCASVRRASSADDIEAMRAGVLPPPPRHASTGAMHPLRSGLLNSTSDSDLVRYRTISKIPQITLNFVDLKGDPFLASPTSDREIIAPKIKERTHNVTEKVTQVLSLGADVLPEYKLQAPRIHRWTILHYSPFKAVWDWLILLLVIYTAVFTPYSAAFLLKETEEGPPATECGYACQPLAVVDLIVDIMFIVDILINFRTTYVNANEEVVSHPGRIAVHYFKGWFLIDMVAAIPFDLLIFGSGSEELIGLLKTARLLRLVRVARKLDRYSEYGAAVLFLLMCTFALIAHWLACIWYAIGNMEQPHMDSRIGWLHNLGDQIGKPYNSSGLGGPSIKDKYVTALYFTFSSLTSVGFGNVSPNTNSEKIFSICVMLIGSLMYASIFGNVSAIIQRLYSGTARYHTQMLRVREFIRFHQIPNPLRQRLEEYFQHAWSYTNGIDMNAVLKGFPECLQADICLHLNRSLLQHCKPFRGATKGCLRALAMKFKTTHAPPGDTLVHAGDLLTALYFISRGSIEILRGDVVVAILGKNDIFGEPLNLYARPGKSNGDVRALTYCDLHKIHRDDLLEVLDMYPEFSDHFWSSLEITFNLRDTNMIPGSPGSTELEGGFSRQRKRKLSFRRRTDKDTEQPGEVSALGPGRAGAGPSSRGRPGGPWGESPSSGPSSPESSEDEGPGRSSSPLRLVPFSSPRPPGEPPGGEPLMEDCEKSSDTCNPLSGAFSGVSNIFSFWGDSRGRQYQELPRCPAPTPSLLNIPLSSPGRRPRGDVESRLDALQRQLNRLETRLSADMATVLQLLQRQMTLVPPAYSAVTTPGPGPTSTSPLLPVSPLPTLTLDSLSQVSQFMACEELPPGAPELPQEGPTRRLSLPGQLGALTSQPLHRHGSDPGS
Procedure: as §1

[6] = target: hNaV1.5 (Homo sapiens, UniProt Q14524); experiment: as above; format: cell-based; conditions: concentrations up to 30 μM
Procedure: as §1

[7] = target: hCaV3.1 (Homo sapiens, UniProt O43497); experiment: as above; format: cell-based; conditions: concentrations up to 30 μM
Procedure: as §1

[8] = target: hNaV1.2 (Homo sapiens, UniProt Q99250); experiment: as above; format: cell-based; conditions: concentrations up to 30 μM
hNaV1.2, sequence (Q99250 whole entry): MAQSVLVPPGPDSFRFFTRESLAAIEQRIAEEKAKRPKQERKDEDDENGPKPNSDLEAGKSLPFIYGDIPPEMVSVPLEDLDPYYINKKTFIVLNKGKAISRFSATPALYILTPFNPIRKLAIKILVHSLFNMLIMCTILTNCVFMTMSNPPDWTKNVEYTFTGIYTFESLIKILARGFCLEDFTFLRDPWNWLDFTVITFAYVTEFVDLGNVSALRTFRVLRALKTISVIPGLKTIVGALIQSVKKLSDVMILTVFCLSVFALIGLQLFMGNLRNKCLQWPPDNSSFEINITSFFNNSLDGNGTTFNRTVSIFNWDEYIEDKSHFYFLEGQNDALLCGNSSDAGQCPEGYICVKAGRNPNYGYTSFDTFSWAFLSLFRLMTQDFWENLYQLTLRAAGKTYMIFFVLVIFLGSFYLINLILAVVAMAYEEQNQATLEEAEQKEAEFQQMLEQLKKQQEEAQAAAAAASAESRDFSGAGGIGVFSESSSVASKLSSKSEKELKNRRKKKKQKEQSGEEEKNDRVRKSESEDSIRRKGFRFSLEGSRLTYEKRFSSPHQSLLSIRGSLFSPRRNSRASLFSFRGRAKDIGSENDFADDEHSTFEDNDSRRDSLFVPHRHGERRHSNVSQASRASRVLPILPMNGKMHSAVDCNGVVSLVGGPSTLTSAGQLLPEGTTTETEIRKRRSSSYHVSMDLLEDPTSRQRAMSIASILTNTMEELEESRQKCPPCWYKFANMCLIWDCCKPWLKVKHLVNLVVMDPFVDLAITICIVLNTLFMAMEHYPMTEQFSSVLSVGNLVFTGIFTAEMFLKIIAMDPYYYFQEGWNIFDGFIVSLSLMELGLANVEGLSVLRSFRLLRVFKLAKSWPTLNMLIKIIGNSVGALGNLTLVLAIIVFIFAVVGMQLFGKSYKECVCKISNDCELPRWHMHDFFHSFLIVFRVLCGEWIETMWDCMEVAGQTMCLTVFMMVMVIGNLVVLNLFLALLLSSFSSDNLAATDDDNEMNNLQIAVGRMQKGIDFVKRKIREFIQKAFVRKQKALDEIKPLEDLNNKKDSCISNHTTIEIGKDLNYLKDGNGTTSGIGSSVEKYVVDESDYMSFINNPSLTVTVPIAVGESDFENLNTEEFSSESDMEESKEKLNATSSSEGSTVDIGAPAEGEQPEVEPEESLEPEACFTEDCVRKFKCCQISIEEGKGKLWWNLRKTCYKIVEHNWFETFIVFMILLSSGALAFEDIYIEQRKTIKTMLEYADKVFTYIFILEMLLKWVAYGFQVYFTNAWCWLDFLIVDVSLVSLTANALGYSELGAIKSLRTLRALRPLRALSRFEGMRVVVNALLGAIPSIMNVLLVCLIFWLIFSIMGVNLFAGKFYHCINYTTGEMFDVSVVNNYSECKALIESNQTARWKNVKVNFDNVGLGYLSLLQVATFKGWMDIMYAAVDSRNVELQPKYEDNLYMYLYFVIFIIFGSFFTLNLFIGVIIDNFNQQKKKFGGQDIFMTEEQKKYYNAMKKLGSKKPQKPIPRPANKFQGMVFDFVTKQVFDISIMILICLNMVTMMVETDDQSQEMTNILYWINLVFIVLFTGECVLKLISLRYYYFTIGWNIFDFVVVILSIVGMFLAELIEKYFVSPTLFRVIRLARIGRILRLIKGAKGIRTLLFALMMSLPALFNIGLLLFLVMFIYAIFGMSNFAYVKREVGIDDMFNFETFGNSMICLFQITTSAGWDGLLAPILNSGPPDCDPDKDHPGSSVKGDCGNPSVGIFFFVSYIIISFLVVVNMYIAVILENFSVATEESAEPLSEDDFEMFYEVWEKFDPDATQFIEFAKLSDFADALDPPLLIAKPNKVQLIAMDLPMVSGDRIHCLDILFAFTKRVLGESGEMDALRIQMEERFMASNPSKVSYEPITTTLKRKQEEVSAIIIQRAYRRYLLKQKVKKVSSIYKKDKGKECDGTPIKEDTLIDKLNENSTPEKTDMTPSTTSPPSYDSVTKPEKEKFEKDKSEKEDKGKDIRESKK
Procedure: as §1

T1 sequence (P08684 whole entry): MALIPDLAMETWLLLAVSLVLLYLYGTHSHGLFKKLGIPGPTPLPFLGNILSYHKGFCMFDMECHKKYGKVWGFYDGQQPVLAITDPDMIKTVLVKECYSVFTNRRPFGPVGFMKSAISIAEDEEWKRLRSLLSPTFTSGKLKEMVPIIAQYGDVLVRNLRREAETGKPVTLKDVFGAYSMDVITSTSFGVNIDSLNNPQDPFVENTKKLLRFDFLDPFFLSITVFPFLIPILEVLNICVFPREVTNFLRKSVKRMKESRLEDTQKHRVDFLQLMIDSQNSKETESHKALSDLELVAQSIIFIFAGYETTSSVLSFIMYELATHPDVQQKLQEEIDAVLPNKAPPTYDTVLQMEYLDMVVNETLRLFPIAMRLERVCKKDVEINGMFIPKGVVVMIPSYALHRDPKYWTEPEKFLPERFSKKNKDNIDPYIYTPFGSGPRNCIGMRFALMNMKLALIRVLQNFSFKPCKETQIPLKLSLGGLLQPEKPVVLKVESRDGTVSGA

NC(=O)OC[C@@H](O)C[C@H](NC(=O)[C@H]1NCCC[C@H]1O)C(=O)N[C@@H](Cc1c[nH]cn1)C(=O)N[C@H](C(=O)O)[C@H](O)c1cnc(Cl)[nH]1 [GE81112A]
Direct competitive inhibition of CYPA4 [1]: not observed
Time-dependent inhibition of CYPA4 [1]: not observed
Mutagenicity [2]: no mutagenicity
Intrinsic clearance (CLint) ([3]; 5 μM, classified as low): 0.01 mL/(h × 1 million cells)
Directly glucuronic acid-conjugated metabolites ([3]; human primary plated hepatocytes): not observed
Ion channel inhibition [4]: did not inhibit
Ion channel inhibition [5]: did not inhibit
Ion channel inhibition [6]: did not inhibit
Ion channel inhibition [7]: did not inhibit
Ion channel inhibition [8]: did not inhibit
